Measurements reported in ChEMBL document CHEMBL5055654, “Discovery of 5-methylpyrimidopyridone analogues as selective antimycobacterial agents” (Bioorg Med Chem, 2021).
In brackets after ≈: the same amount, converted by molar mass. Activity calls are given as the source filed them. The calls are words filed in the database; no cut-off is given here.

Key:
[1] = tested on: Mycobacterium tuberculosis; experiment: Antitubercular activity against Mycobacterium tuberculosis mc2 6230 assessed as inhibition of bacterial growth incubated for 7 days; format: functional; settings: mc2 6230, 168 h, time 7 day
[2] = Binding affinity to Mycobacterium tuberculosis PknB
[3] = tested on: Vero; experiment: Cytotoxicity against African green monkey Vero cells assessed as reduction in cell viability measured after 72 hrs by CCK8 assay; format: cell-based; settings: Chlorocebus sabaeus
[4] = tested on: Salmonella; experiment: Antibacterial activity against Salmonella at 10 uM incubated for 16 hrs by microtiter reader analysis; format: functional, organism-based
[5] = tested on: Escherichia coli; experiment: Antibacterial activity against Escherichia coli at 10 uM incubated for 16 hrs by microtiter reader analysis; format: functional, organism-based

Structure (SMILES)	MIC [1] [µM]	also measured
Cc1c(-c2ccccc2Cl)c(=O)n(C23CC4CC(CC(C4)C2)C3)c2nc(N3CC(OC(C)C)C3)ncc12	> 512	
Cc1c(-c2ccccc2Cl)c(=O)n(C23CC4CC(CC(C4)C2)C3)c2nc(N(C)CCO)ncc12	> 512	
Cc1c(-c2ccccc2Cl)c(=O)n(C23CC4CC(CC(C4)C2)C3)c2nc(N3CCC(N4CCOCC4)CC3)ncc12	> 512	
Cc1c(-c2ccccc2Cl)c(=O)n(C23CC4CC(CC(C4)C2)C3)c2nc(N3CCN(C)CC3)ncc12	> 512	
Cc1cc(Nc2ncc3c(C)c(-c4ccccc4C#N)c(=O)n(C45CC6CC(CC(C6)C4)C5)c3n2)ccc1N1CCC(N(C)C)CC1	16 (≈ 10 µg/mL)	
Cc1c(-c2ccccc2Cl)c(=O)n(C23CC4CC(CC(C4)C2)C3)c2nc(NCCO)ncc12	> 512	
Cc1c(-c2ccccc2Cl)c(=O)n(C23CC4CC(CC(C4)C2)C3)c2nc(NC(C)C)ncc12	256 (≈ 119 µg/mL)	
Cc1cc(Nc2ncc3c(C)c(-c4ccccc4Cl)c(=O)n(C4CCCC4)c3n2)ccc1N1CCC(N(C)C)CC1	32 (≈ 18.3 µg/mL)	
Cc1c(-c2ccccc2Cl)c(=O)n(C23CC4CC(CC(C4)C2)C3)c2nc(N3CCC(O)CC3)ncc12	> 512	
Cc1c(-c2ccccc2Cl)c(=O)n(C23CC4CC(CC(C4)C2)C3)c2nc(NC[C@H]3CCCO3)ncc12	> 512	
Cc1cc(Nc2ncc3c(C)c(-c4ccccc4Cl)c(=O)n(C45CC6CC(CC(C6)C4)C5)c3n2)ccc1N1CCC(C)CC1	> 512	
COc1cc(Nc2ncc3c(C)c(-c4ccccc4Cl)c(=O)n(C45CC6CC(CC(C6)C4)C5)c3n2)ccc1N1CCN(C)CC1	8 (≈ 5 µg/mL)	Kd [2]: 750 nM
COc1ccccc1-c1c(C)c2cnc(Nc3ccc(N4CCC(N(C)C)CC4)c(C)c3)nc2n(C23CC4CC(CC(C4)C2)C3)c1=O	16 (≈ 10.1 µg/mL)	
CCCCNc1ncc2c(C)c(-c3ccccc3Cl)c(=O)n(C34CC5CC(CC(C5)C3)C4)c2n1	512 (≈ 244 µg/mL)	
Cc1cc(Nc2ncc3c(C)c(-c4ccccc4Cl)c(=O)n(C45CC6CC(CC(C6)C4)C5)c3n2)ccc1N1CCN(C)CC1	8 (≈ 4.87 µg/mL)	IC50 [3]: 4.8 µM; Activity [4]: inactive; Activity [5]: inactive
Cc1cc(Nc2ncc3c(C)c(-c4ccc(Cl)cc4)c(=O)n(C45CC6CC(CC(C6)C4)C5)c3n2)ccc1N1CCC(N(C)C)CC1	> 512	
CCNc1ncc2c(C)c(-c3ccccc3Cl)c(=O)n(C34CC5CC(CC(C5)C3)C4)c2n1	256 (≈ 115 µg/mL)	
NNC(=O)c1ccncc1 [ISONIAZID]	0.2 (≈ 0.0274 µg/mL)	
Cc1c(-c2ccccc2Cl)c(=O)n(C23CC4CC(CC(C4)C2)C3)c2nc(N3CCC(C)CC3)ncc12	> 512	

Structure (SMILES)	MIC [1] [µM]	also measured
Cc1cc(Nc2ncc3c(C)c(-c4ccccc4Cl)c(=O)n(C45CC6CC(CC(C6)C4)C5)c3n2)ccc1N1CCC(N(C)C)CC1	4 (≈ 2.55 µg/mL)	IC50 [3]: 2.9 µM; Activity [4]: inactive; Activity [5]: inactive
Cc1cc(Nc2ncc3c(C)c(-c4ccccc4F)c(=O)n(C45CC6CC(CC(C6)C4)C5)c3n2)ccc1N1CCC(N(C)C)CC1	32 (≈ 19.9 µg/mL)	
Cc1cc(Nc2ncc3c(C)c(-c4ccccc4)c(=O)n(C45CC6CC(CC(C6)C4)C5)c3n2)ccc1N1CCC(N(C)C)CC1	16 (≈ 9.65 µg/mL)	
Cc1c(-c2ccccc2Cl)c(=O)n(C23CC4CC(CC(C4)C2)C3)c2nc(NC3CC3)ncc12	265 (≈ 122 µg/mL)	
Cc1c(-c2ccccc2Cl)c(=O)n(C23CC4CC(CC(C4)C2)C3)c2nc(NC3CCCC3)ncc12	265 (≈ 130 µg/mL)	
CCC(C)Nc1ncc2c(C)c(-c3ccccc3Cl)c(=O)n(C34CC5CC(CC(C5)C3)C4)c2n1 (stereo not given)	512 (≈ 244 µg/mL)	
COCCNc1ncc2c(C)c(-c3ccccc3Cl)c(=O)n(C34CC5CC(CC(C5)C3)C4)c2n1	> 512	
Cc1c(-c2ccccc2Cl)c(=O)n(C23CC4CC(CC(C4)C2)C3)c2nc(Nc3ccc(N4CCN(C)CC4)c(OC(C)C)c3)ncc12	8 (≈ 5.23 µg/mL)	IC50 [3]: 4.6 µM; Activity [4]: inactive; Activity [5]: inactive
COc1nc2ccc(Br)cc2cc1[C@@H](c1ccccc1)[C@@](O)(CCN(C)C)c1cccc2ccccc12 [BEDAQUILINE]	0.02 (≈ 0.0111 µg/mL)	
Cc1c(-c2ccccc2Cl)c(=O)n(C23CC4CC(CC(C4)C2)C3)c2nc(Nc3ccc(N4CCN(C)CC4)cc3)ncc12	512 (≈ 305 µg/mL)	
Cc1cc(Nc2ncc3c(C)c(-c4cccc(Cl)c4)c(=O)n(C45CC6CC(CC(C6)C4)C5)c3n2)ccc1N1CCC(N(C)C)CC1	> 512	
Cc1cc(Nc2ncc3c(C)c(-c4ccccc4Cl)c(=O)n(C4CCCCC4)c3n2)ccc1N1CCC(N(C)C)CC1	32 (≈ 18.7 µg/mL)	
Cc1cc(Nc2ncc3c(C)c(-c4ccccc4Cl)c(=O)n(C45CC6CC(CC(C6)C4)C5)c3n2)ccc1N1CCN(CCO)CC1	32 (≈ 20.5 µg/mL)	
CCOc1cc(Nc2ncc3c(C)c(-c4ccccc4Cl)c(=O)n(C45CC6CC(CC(C6)C4)C5)c3n2)ccc1N1CCN(C)CC1	8 (≈ 5.11 µg/mL)	IC50 [3]: 4.4 µM; Activity [4]: inactive; Activity [5]: inactive
Cc1c(-c2ccccc2Cl)c(=O)n(C23CC4CC(CC(C4)C2)C3)c2nc(N3CCC(N(C)C)CC3)ncc12	16 (≈ 8.51 µg/mL)	
Cc1c(-c2ccccc2Cl)c(=O)n(C23CC4CC(CC(C4)C2)C3)c2nc(NC3CCCCC3)ncc12	512 (≈ 258 µg/mL)	
Cc1c(-c2ccccc2Cl)c(=O)n(C23CC4CC(CC(C4)C2)C3)c2nc(N3CCN(CCO)CC3)ncc12	64 (≈ 34.2 µg/mL)	
Cc1ccccc1-c1c(C)c2cnc(Nc3ccc(N4CCC(N(C)C)CC4)c(C)c3)nc2n(C23CC4CC(CC(C4)C2)C3)c1=O	8 (≈ 4.93 µg/mL)	
